In patent US11274083B2, “Substituted thiophenyl uracils, salts thereof and the use thereof as herbicidal agents” (Syngenta Crop Protection AG, priority 2017, dated 2022):

Experiments:
Type in all cases: in vivo
Abutilon theophrasti [1] = experiment: Herbicidal action post-emergence, greenhouse pot test
Outline: (§1)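 Efficacy is a visual percentage, 0% like untreated and 100% dead, read about 3 weeks after treatment under optimal greenhouse growth. Treatment was a post-emergence spray of aqueous WP or EC preparations at 80 g/ha or lower with 0.5% additive.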

Amaranthus retroflexus [2] = experiment: as above
Outline: as §1

Echinochloa crus-galli [3] = experiment: as above
Outline: as §1

Hordeum murinum [4] = experiment: as above
Outline: as §1

Lolium rigidum [5] = experiment: as above
Outline: as §1

Matricaria inodora [6] = experiment: as above
Outline: as §1

Pharbitis purpurea [7] = experiment: as above
Outline: as §1

Polygonum convolvulus [8] = experiment: as above
Outline: as §1

Setaria viridis [9] = experiment: as above
Outline: as §1

Stellaria media [10] = experiment: as above
Outline: as §1

Veronica persica [11] = experiment: as above
Outline: as §1

Viola tricolor [12] = experiment: as above
Outline: as §1

Triticum aestivum = experiment: Crop compatibility post-emergence, greenhouse pot test
Outline: (§2)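 Visual % damage rating versus untreated plants (100% = plants dead, 0% = as control), taken about 3 weeks post-treatment. Spray applied to foliage at one-leaf stage (2–3 weeks from sowing) as WP/EC formulation in water plus 0.5% additive, 600 L/ha; greenhouse pots, sandy loam.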

Abutilon theophrasti [13] = experiment: Herbicidal action pre-emergence, greenhouse pot test
Outline: (§3)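 Soil-applied pre-emergence treatment: aqueous suspension or emulsion of WP or EC formulation, 0.5% additive, water equivalent to 600 L/ha, dose of 320 g/ha or lower. Readout is visual percent efficacy after ~3 weeks, where 0% equals control plants.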

Alopecurus myosuroides [14] = experiment: as above; details: application rate 320 g/ha
Outline: as §3

Amaranthus retroflexus [15] = experiment: as above
Outline: as §3

Avena fatua = experiment: as above; details: application rate 320 g/ha
Outline: as §3

Cyperus esculentus = experiment: as above; details: application rate 320 g/ha
Outline: as §3

Echinochloa crus-galli [16] = experiment: as above; details: application rate 320 g/ha
Outline: as §3

Hordeum murinum [17] = experiment: as above; details: application rate 320 g/ha
Outline: as §3

Lolium rigidum [18] = experiment: as above
Outline: as §3

Pharbitis purpurea [19] = experiment: as above
Outline: as §3

Polygonum convolvulus [20] = experiment: as above
Outline: as §3

Setaria viridis [21] = experiment: as above
Outline: as §3

Stellaria media [22] = experiment: as above
Outline: as §3

Veronica persica [23] = experiment: as above
Outline: as §3

Viola tricolor [24] = experiment: as above
Outline: as §3

Matricaria inodora [25] = experiment: as above
Oryza sativa = experiment: Crop compatibility post-emergence, greenhouse pot test
Outline: as §2

Alopecurus myosuroides [26] = experiment: Herbicidal action post-emergence, greenhouse pot test; details: application rate 80 g/ha, scored visually after about 3 weeks vs untreated controls
Outline: as §1

Zea mays = experiment: Crop compatibility post-emergence, greenhouse pot test
Outline: as §2

Digitaria sanguinalis = experiment: Herbicidal action post-emergence, greenhouse pot test; details: application rate 20 g/ha

Compound	Abutilon theophrasti (Efficacy in %) (Abutilon theophrasti [1]; application rate 80 g/ha) [%]	Echinochloa crus-galli (Efficacy in %) (Echinochloa crus-galli [3]; application rate 80 g/ha) [%]	Hordeum murinum (Efficacy in %) (Hordeum murinum [4]; application rate 80 g/ha) [%]	Lolium rigidum (Efficacy in %) (Lolium rigidum [5]; application rate 80 g/ha) [%]	Pharbitis purpurea (Efficacy in %) (Pharbitis purpurea [7]; application rate 80 g/ha) [%]	Polygonum convolvulus (Efficacy in %) (Polygonum convolvulus [8]; application rate 80 g/ha) [%]	Setaria viridis (Efficacy in %) (Setaria viridis [9]; application rate 80 g/ha) [%]	Stellaria media (Efficacy in %) (Stellaria media [10]; application rate 80 g/ha) [%]	Veronica persica (Efficacy in %) (Veronica persica [11]; application rate 80 g/ha) [%]	Abutilon theophrasti (Efficacy in %) (Abutilon theophrasti [13]; application rate 320 g/ha) [%]	Alopecurus myosuroides (Efficacy in %) (Alopecurus myosuroides [14]) [%]	Avena fatua (Efficacy in %) (Avena fatua) [%]	Cyperus esculentus (Efficacy in %) (Cyperus esculentus) [%]	Echinochloa crus-galli (Efficacy in %) (Echinochloa crus-galli [16]) [%]	Hordeum murinum (Efficacy in %) (Hordeum murinum [17]) [%]	Lolium rigidum (Efficacy in %) (Lolium rigidum [18]; application rate 320 g/ha) [%]	Pharbitis purpurea (Efficacy in %) (Pharbitis purpurea [19]; application rate 320 g/ha) [%]	Polygonum convolvulus (Efficacy in %) (Polygonum convolvulus [20]; application rate 320 g/ha) [%]	Setaria viridis (Efficacy in %) (Setaria viridis [21]; application rate 320 g/ha) [%]	Viola tricolor (Efficacy in %) (Viola tricolor [24]; application rate 320 g/ha) [%]	also measured
CC(Sc1cc(-n2c(=O)cc(C(F)(F)F)n(C)c2=O)c(F)cc1Cl)C(=O)OCCC(=O)OC(C)(C)C (stereo not drawn) [I.1-5]	100	100	80	80	100	100	100	100	100	100	100	100	80	100	100	100	100	100	100	100	Amaranthus retroflexus (Efficacy in %) (Amaranthus retroflexus [2]; application rate 80 g/ha): 100%; Matricaria inodora (Efficacy in %) (Matricaria inodora [6]; application rate 80 g/ha): 100%; Viola tricolor (Efficacy in %) (Viola tricolor [12]; application rate 20 g/ha): 100%; Triticum aestivum (Efficacy in %) (Triticum aestivum; application rate 80 g/ha): 20%; Amaranthus retroflexus (Efficacy in %) (Amaranthus retroflexus [15]; application rate 80 g/ha): 100%; Stellaria media (Efficacy in %) (Stellaria media [22]; application rate 80 g/ha): 100%; Veronica persica (Efficacy in %) (Veronica persica [23]; application rate 320 g/ha): 100%; Matricaria inodora (Efficacy in %) (Matricaria inodora [25]; application rate 80 g/ha): 100%
COC(=O)COC(=O)CSc1cc(-n2c(=O)cc(C(F)(F)F)n(C)c2=O)c(F)cc1Cl [I.8-42]	100	100	80		100	100	100	100	100	100		80	100	100	80	80	100	100	100	100	Amaranthus retroflexus (Efficacy in %) (Amaranthus retroflexus [2]; application rate 20 g/ha): 100%; Matricaria inodora (Efficacy in %) (Matricaria inodora [6]; application rate 20 g/ha): 100%; Viola tricolor (Efficacy in %) (Viola tricolor [12]; application rate 80 g/ha): 100%; Oryza sativa (Efficacy in %) (Oryza sativa; application rate 20 g/ha): 0%; Triticum aestivum (Efficacy in %) (Triticum aestivum; application rate 5 g/ha): 20%; Amaranthus retroflexus (Efficacy in %) (Amaranthus retroflexus [15]; application rate 20 g/ha): 100%; Stellaria media (Efficacy in %) (Stellaria media [22]; application rate 320 g/ha): 100%; Veronica persica (Efficacy in %) (Veronica persica [23]; application rate 320 g/ha): 100%; Matricaria inodora (Efficacy in %) (Matricaria inodora [25]; application rate 320 g/ha): 100%
CC(C)NC(=O)COC(=O)C(C)Sc1cc(-n2c(=O)cc(C(F)(F)F)n(C)c2=O)c(F)cc1Cl (stereo not drawn) [I.1-184]	100	100	80	100	100	100		100	100		90	90		100	90	100					Alopecurus myosuroides (Efficacy in %) (Alopecurus myosuroides [26]): 80%; Amaranthus retroflexus (Efficacy in %) (Amaranthus retroflexus [2]; application rate 80 g/ha): 100%; Matricaria inodora (Efficacy in %) (Matricaria inodora [6]; application rate 80 g/ha): 100%; Setaria viridis (Efficacy in %) (Setaria viridis [9]; application rate 20 g/ha): 100%; Viola tricolor (Efficacy in %) (Viola tricolor [12]; application rate 80 g/ha): 100%; Zea mays (Efficacy in %) (Zea mays; application rate 20 g/ha): 20%; Abutilon theophrasti (Efficacy in %) (Abutilon theophrasti [13]; application rate 80 g/ha): 100%; Amaranthus retroflexus (Efficacy in %) (Amaranthus retroflexus [15]; application rate 80 g/ha): 100%; Pharbitis purpurea (Efficacy in %) (Pharbitis purpurea [19]; application rate 80 g/ha): 100%; Polygonum convolvulus (Efficacy in %) (Polygonum convolvulus [20]; application rate 80 g/ha): 100%; Setaria viridis (Efficacy in %) (Setaria viridis [21]; application rate 80 g/ha): 100%; Stellaria media (Efficacy in %) (Stellaria media [22]; application rate 80 g/ha): 100%; Veronica persica (Efficacy in %) (Veronica persica [23]; application rate 80 g/ha): 100%; Viola tricolor (Efficacy in %) (Viola tricolor [24]; application rate 80 g/ha): 100%; Matricaria inodora (Efficacy in %) (Matricaria inodora [25]; application rate 80 g/ha): 100%
COC(=O)CCOC(=O)CSc1cc(-n2c(=O)cc(C(F)(F)F)n(C)c2=O)c(F)cc1Cl [I.8-2]	100	100		90	100		100		100	100	80	80	90	100	80		100	100	100	100	Alopecurus myosuroides (Efficacy in %) (Alopecurus myosuroides [26]): 80%; Amaranthus retroflexus (Efficacy in %) (Amaranthus retroflexus [2]; application rate 20 g/ha): 100%; Hordeum murinum (Efficacy in %) (Hordeum murinum [4]; application rate 20 g/ha): 80%; Matricaria inodora (Efficacy in %) (Matricaria inodora [6]; application rate 20 g/ha): 100%; Polygonum convolvulus (Efficacy in %) (Polygonum convolvulus [8]; application rate 20 g/ha): 100%; Stellaria media (Efficacy in %) (Stellaria media [10]; application rate 20 g/ha): 100%; Viola tricolor (Efficacy in %) (Viola tricolor [12]; application rate 80 g/ha): 100%; Amaranthus retroflexus (Efficacy in %) (Amaranthus retroflexus [15]; application rate 20 g/ha): 100%; Lolium rigidum (Efficacy in %) (Lolium rigidum [18]; application rate 80 g/ha): 90%; Stellaria media (Efficacy in %) (Stellaria media [22]; application rate 320 g/ha): 100%; Veronica persica (Efficacy in %) (Veronica persica [23]; application rate 80 g/ha): 100%; Matricaria inodora (Efficacy in %) (Matricaria inodora [25]; application rate 320 g/ha): 100%
COC(=O)C1(OC(=O)C(C)Sc2cc(-n3c(=O)cc(C(F)(F)F)n(C)c3=O)c(F)cc2Cl)CC1 (stereo not drawn) [I.1-102]																					Abutilon theophrasti (Efficacy in %) (Abutilon theophrasti [1]; application rate 20 g/ha): 100%; Amaranthus retroflexus (Efficacy in %) (Amaranthus retroflexus [2]; application rate 20 g/ha): 100%; Echinochloa crus-galli (Efficacy in %) (Echinochloa crus-galli [3]; application rate 20 g/ha): 100%; Hordeum murinum (Efficacy in %) (Hordeum murinum [4]; application rate 20 g/ha): 100%; Lolium rigidum (Efficacy in %) (Lolium rigidum [5]; application rate 20 g/ha): 80%; Matricaria inodora (Efficacy in %) (Matricaria inodora [6]; application rate 20 g/ha): 100%; Pharbitis purpurea (Efficacy in %) (Pharbitis purpurea [7]; application rate 20 g/ha): 100%; Polygonum convolvulus (Efficacy in %) (Polygonum convolvulus [8]; application rate 20 g/ha): 100%; Setaria viridis (Efficacy in %) (Setaria viridis [9]; application rate 20 g/ha): 100%; Stellaria media (Efficacy in %) (Stellaria media [10]; application rate 20 g/ha): 80%; Veronica persica (Efficacy in %) (Veronica persica [11]; application rate 20 g/ha): 100%; Viola tricolor (Efficacy in %) (Viola tricolor [12]; application rate 20 g/ha): 100%; Oryza sativa (Efficacy in %) (Oryza sativa; application rate 5 g/ha): 0%; Zea mays (Efficacy in %) (Zea mays; application rate 5 g/ha): 0%; Digitaria sanguinalis (Efficacy in %) (Digitaria sanguinalis): 100%
